Measurements published in patent US20250243180A1, “TARGETED PROTEIN DEGRADATION” (Monte Rosa Therapeutics AG, priority 2023, published 2025).

How the values were obtained:
NEK7 [1] = test: NEK7 degradation in the brain of NHP (JESS); format: in vivo; details: oral 30 mg/kg for 7 days; for Average percent NEK7/β-actin in brain, relative to vehicle: 24 h after final dose
Procedure: Naïve NHP were orally administered with 7 consecutive daily dose of Compound 14 at 30 mg/kg, n=4 per dose group, 2 male and 2 female. Compound formulation was prepared on the day of administration in 0.5% methyl cellulose (4000 cps) in water and animals were fed twice a day; water was available ad libitum. Plasma collected posted dose on Day 1 and Day 7 were analyzed using a non GLP LC/MS/MS bioanalytical method to evaluate the compound concentration. Brain samples were harvested 24 h after final dose. Lysates for different brain regions (hippocampus, frontal cortex, and cerebellum) were prepared in M-PER lysis buffer and diluted at total protein concentration of 0.4 mg/mL in 0.1× sample buffer (12-230 kDa detection module; Protein Simple). The anti-NEK7 rabbit mAb (Abcam #AB133514) was used at 1:100 and anti-β-actin rabbit mAb (CST #5125) was used at 1:500. Samples were probed for NEK7 and β-actin protein levels by JESS, and quantified relative to vehicle control.
In Table 11, NEK7 protein degradation in brains of NHP following oral dosing of Compound 14 is reported. NHP received daily oral administration of 30 mg/kg of Compound 14 or vehicle for 7 days. For Compound 14 group, n=4 (two male and two female); for vehicle, n=2; samples taken 24 h post-final dose. Brains were harvested 24 h after final dose, sectioned by region (hippocampus, frontal cortex, cerebellum), and analyzed for NEK7 and beta-actin protein levels by JESS. The average percent of NEK7 was quantified by brain region and normalized to β-actin.

IL-1β = IL-1β in human monocyte-derived macrophages, LPS/MSU stimulation; format: cell-based; details: 24 h pre-treatment, LPS + MSU 6 h, eight donors
Procedure: Human monocytes were enriched and isolated from a buffy coat of whole blood with a RosetteSep™ Human Monocyte Enrichment Cocktail (Cat.No. 15068, StemCell) and Ficoll-Plaque PLUS (Cat.No. H8889, Sigma). Monocytes were differentiated into macrophages by treatment with 100 ng/mL M-CSF for 6 days at 37° C., 5% CO2. Differentiated macrophages were seeded overnight (50,000 cells/well) in 100 μL of medium in a 96-well white-bottom plate at 37° C., 5% CO2. Cells were treated with a concentration range of MGD or the NLRP3 inhibitor selnoflast (Cat.No. HY-132831, MedChemExpress) for 24 h prior to stimulation with monosodium urate crystals (MSU). Macrophages were stimulated with […] lipopolysaccharide (LPS) and 0.2 mg/mL MSU for 6 h. Medium of stimulated macrophages were collected and assayed for caspase-1 activity directly (Promega G9951) as well as IL-1β (Promega W6010), according to manufacturer's instructions.
(a, b) Human monocyte-derived macrophages pre-treated with a dose-response of Compound 14 or selnoflast (NLRP3 inhibitor) for 24 h and stimulated with a combination of lipopolysaccharide (LPS) and monosodium urate crystals (MSU) for 6 h prior to supernatant collection. Monocytes were isolated from eight human donors. Caspase-1 (a) and IL-1β (b) in the supernatant are measured and data are expressed as percentage relative to mean values of DMSO conditions for each donor (technical triplicates). Means of eight donors are plotted and analyzed using a four-parameter logistic regression model.

NEK7 [2] = test: NEK7 degradation in spleen and PBMC in rabbit gout model (JESS); format: in vivo; details: rabbits, 10 mg/kg QD×7, harvested 2 h after the final dose
Procedure: MSU crystals were prepared by dissolving uric acid (Aladdin, cat #U105582) in boiling water (1 g in 200 mL with 6 mL of 1 N NaOH). PH value was adjusted to 7.2 by HCl. The solution was stirred and cooled to room temperature and stored at 4° C. overnight. The precipitate was filtered with filter paper and dried under low heat to obtain MSU crystals. New Zealand White rabbits received an intra-articular injection of 1 mL of MSU crystals (50 mg/mL) into both knees (MSU group) or PBS (as vehicle, control group). n=10 for MSU groups; n=6 for PBS group. […]
On Day 7, tissue was harvested 2 hours post final dose. […] Lysates were prepared in M-PER lysis buffer and protein concentration was measured using Pierce rapid gold BCA protein Assay Kit (Thermo Fisher) according to manufacturer's protocol. […]
(a) To determine NEK7 degradation, spleens and peripheral blood mononuclear cells (PBMC) were analyzed by JESS for NEK7 and normalized to α-Tubulin from five representative animals. (b) The degree of joint swelling was determined by caliper measurements at the indicated time points. (c) Rabbit bone tissue sections were stained and quantified for anti-CD31 immunohistochemistry. Results expressed as mean±SEM. […]

[3] = test system: New Zealand White rabbits, MSU crystal gout model; test: In vivo rabbit gout model (intra-articular MSU): joint swelling and CD31 staining; details: daily prophylactic treatment
Procedure: MSU crystals were prepared by dissolving uric acid (Aladdin, cat #U105582) in boiling water (1 g in 200 mL with 6 mL of 1 N NaOH). PH value was adjusted to 7.2 by HCl. The solution was stirred and cooled to room temperature and stored at 4° C. overnight. The precipitate was filtered with filter paper and dried under low heat to obtain MSU crystals. New Zealand White rabbits received an intra-articular injection of 1 mL of MSU crystals (50 mg/mL) into both knees (MSU group) or PBS (as vehicle, control group). n=10 for MSU groups; n=6 for PBS group.
For immunohistochemistry, bone sections were stained with anti-CD31 (Abcam #ab9498) diluted at 1:500. The nuclei were stained with hematoxylin. Slides were scanned using LEICA Aperio GT450 at 400× magnification. The number of positive blood vessels were counted blindly.
(a) To determine NEK7 degradation, spleens and peripheral blood mononuclear cells (PBMC) were analyzed by JESS for NEK7 and normalized to α-Tubulin from five representative animals. (b) The degree of joint swelling was determined by caliper measurements at the indicated time points. (c) Rabbit bone tissue sections were stained and quantified for anti-CD31 immunohistochemistry. Results expressed as mean±SEM. Statistical analysis was performed using two-way ANOVA. The difference was considered significant when p<0.05.

| SMILES | degradation of NEK7 across three different brain regions (NEK7 [1]) | Average percent NEK7/β-actin in brain, relative to vehicle (NEK7 [1]; Cerebellum) | Average percent NEK7/β-actin in brain, relative to vehicle (NEK7 [1]; Frontal Cortex) | Average percent NEK7/β-actin in brain, relative to vehicle (NEK7 [1]; Hippocampus) | IL-1β Imax (IL-1β) | IC50 (IL-1β; Homo sapiens, Macrophage) | degradation of NEK7 in spleen and PBMCs (NEK7 [2]) | CD31 staining in bone tissue [3] | joint swelling induced by intra-articular MSU injection [3] |
| --- | --- | --- | --- | --- | --- | --- | --- | --- | --- |
| Cc1cnc(C(C)(C)C(=O)NCc2cc(Cl)c(C3CCC(=O)NC3=O)c(Cl)c2)nc1 (stereo not drawn) [Compound 14, N-(3,5-dichloro-4-(2,6-dioxopiperidin-3-yl)benzyl)-2-methyl-2-(5-methylpyrimidin-2-yl)-propanamide] | around 80% | 18.2% | 20.3% | 21.3% | 70% | 1.1 nM | – | – | – |
| CC(C)(C(=O)NCc1cc(Cl)c(C2CCC(=O)NC2=O)c(Cl)c1)c1ncc(C#N)cn1 (stereo not drawn) [Compound 16, 2-(5-cyanopyrimidin-2-yl)-N-(3,5-dichloro-4-(2,6-dioxopiperidin-3-yl)benzyl)-2-methyl-propanamide] | – | – | – | – | – | – | greater than 50% | improvement | improvement |
